Legend:
Assay type in all cases: functional
HOP-92 [1] = experiment: Antiproliferative activity against human HOP92 cells assessed as cell growth at 0.5 uM by SRB assay; conditions: read-out: Activity
U-251 [2] = experiment: Antiproliferative activity against human U251 cells assessed as cell growth at 0.5 uM by SRB assay; conditions: read-out: Activity
SNB-75 [3] = experiment: Antiproliferative activity against human SNB75 cells assessed as cell growth at 5 uM by SRB assay; conditions: read-out: Activity
MDA-MB-231 = experiment: Antiproliferative activity against human MDA-MB-231 cells assessed as cell growth at 500 uM by SRB assay; conditions: read-out: Activity
IGROV-1 = experiment: Antiproliferative activity against human IGROV1 cells assessed as cell growth at 500 uM by SRB assay; conditions: read-out: Activity
ACHN [4] = experiment: Antiproliferative activity against human ACHN cells assessed as cell growth at 500 uM by SRB assay; conditions: read-out: Activity
Malme-3M [5] = experiment: Antiproliferative activity against human MALME-3M cells assessed as cell growth at 500 uM by SRB assay; conditions: read-out: Activity
MOLT-4 [6] = experiment: Antiproliferative activity against human MOLT4 cells assessed as cell growth at 0.5 uM by SRB assay; conditions: read-out: Activity
HCT-116 [7] = experiment: Antiproliferative activity against human HCT116 cells assessed as cell growth at 50 uM by SRB assay; conditions: read-out: Activity
SN12C = experiment: Antiproliferative activity against human SN12C cells assessed as cell growth at 50 uM by SRB assay; conditions: read-out: Activity
Malme-3M [8] = experiment: Antiproliferative activity against human MALME-3M cells assessed as cell growth at 5 uM by SRB assay; conditions: read-out: Activity
HCT-116 [9] = experiment: Antiproliferative activity against human HCT116 cells by SRB assay
CAKI-1 [10] = experiment: Antiproliferative activity against human Caki1 cells assessed as cell growth at 50 uM by SRB assay; conditions: read-out: Activity
MOLT-4 [11] = experiment: Antiproliferative activity against human MOLT4 cells assessed as cell growth at 5 mM by SRB assay; conditions: read-out: Activity
SNB-75 [12] = experiment: Antiproliferative activity against human SNB75 cells by SRB assay
DU-145 = experiment: Antiproliferative activity against human DU145 cells assessed as cell growth at 500 uM by SRB assay; conditions: read-out: Activity
UO-31 = experiment: Antiproliferative activity against human UO31 cells assessed as cell growth at 50 uM by SRB assay; conditions: read-out: Activity
786-0 = experiment: Antiproliferative activity against human 786-0 cells assessed as cell growth at 5 uM by SRB assay; conditions: read-out: Activity
RXF 393 [13] = experiment: Antiproliferative activity against human RXF393 cells assessed as cell growth at 5 uM by SRB assay; conditions: read-out: Activity
HT-29 [14] = experiment: Antiproliferative activity against human HT-29 cells assessed as cell growth at 0.5 uM by SRB assay; conditions: read-out: Activity
U-251 [15] = experiment: Antiproliferative activity against human U251 cells by SRB assay
OVCAR-8 = experiment: Antiproliferative activity against human OVCAR8 cells assessed as cell growth at 50 uM by SRB assay; conditions: read-out: Activity
COLO 205 [16] = experiment: Antiproliferative activity against human COLO205 cells assessed as cell growth at 5 uM by SRB assay; conditions: read-out: Activity
NCI-H460 = experiment: Antiproliferative activity against human NCI-H460 cells assessed as cell growth at 5 mM by SRB assay; conditions: read-out: Activity
MOLT-4 [17] = experiment: Antiproliferative activity against human MOLT4 cells assessed as cell growth at 500 uM by SRB assay; conditions: read-out: Activity
EKVX = experiment: Antiproliferative activity against human EKVX cells assessed as cell growth at 5 uM by SRB assay; conditions: read-out: Activity
SF-295 = experiment: Antiproliferative activity against human SF295 cells assessed as cell growth at 500 uM by SRB assay; conditions: read-out: Activity
SW-620 = experiment: Antiproliferative activity against human SW620 cells assessed as cell growth at 500 uM by SRB assay; conditions: read-out: Activity
A498 = experiment: Antiproliferative activity against human A498 cells assessed as cell growth at 0.5 uM by SRB assay; conditions: read-out: Activity
K562 = experiment: Antiproliferative activity against human K562 cells by SRB assay
ACHN [18] = experiment: Antiproliferative activity against human ACHN cells assessed as cell growth at 50 uM by SRB assay; conditions: read-out: Activity
HOP-92 [19] = experiment: Antiproliferative activity against human HOP92 cells by SRB assay
UACC-257 = experiment: Antiproliferative activity against human UACC257 cells assessed as cell growth at 5 mM by SRB assay; conditions: read-out: Activity
TK-10 = experiment: Antiproliferative activity against human TK10 cells assessed as cell growth at 50 uM by SRB assay; conditions: read-out: Activity
U-251 [20] = experiment: Antiproliferative activity against human U251 cells assessed as cell growth at 50 uM by SRB assay; conditions: read-out: Activity
SNB-19 = experiment: Antiproliferative activity against human SNB19 cells assessed as cell growth at 0.5 uM by SRB assay; conditions: read-out: Activity
MCF7 [21] = experiment: Antiproliferative activity against human MCF7 cells assessed as cell growth at 5 mM by SRB assay; conditions: read-out: Activity
CAKI-1 [22] = experiment: Antiproliferative activity against human Caki1 cells assessed as cell growth at 500 uM by SRB assay; conditions: read-out: Activity
RXF 393 [23] = experiment: Antiproliferative activity against human RXF393 cells assessed as cell growth at 0.5 uM by SRB assay; conditions: read-out: Activity
HOP-92 [24] = experiment: Antiproliferative activity against human HOP92 cells assessed as cell growth at 5 uM by SRB assay; conditions: read-out: Activity
COLO 205 [25] = experiment: Antiproliferative activity against human COLO205 cells by SRB assay
HOP-62 = experiment: Antiproliferative activity against human HOP62 cells by SRB assay
MCF7 [26] = experiment: Antiproliferative activity against human MCF7 cells assessed as cell growth at 5 uM by SRB assay; conditions: read-out: Activity
HT-29 [27] = experiment: Antiproliferative activity against human HT-29 cells assessed as cell growth at 500 uM by SRB assay; conditions: read-out: Activity
[28] = read-out: LC50 (the source's name)
[29] = read-out: pLC50 (the source's name) (converted)

Question: With `O=C(/C=C/c1ccc(O)c(O)c1)OCCc1ccc(O)c(O)c1` as the compound, how does the growth at 0.5 µM (HOP-92 [1]) read?
Answer: 70%

Question: What about the growth at 0.5 µM (U-251 [2]) of the same compound?
Answer: 102%

Question: And the growth at 5 µM (SNB-75 [3])?
Answer: 75%

Question: And the growth at 500 µM (MDA-MB-231)?
Answer: 85%

Question: What about the growth at 500 µM (IGROV-1) of the same compound?
Answer: 35%

Question: And the growth at 500 µM (ACHN [4])?
Answer: 38%

Question: And the growth at 500 µM (Malme-3M [5])?
Answer: 74%

Question: And the growth at 0.5 µM (MOLT-4 [6])?
Answer: 101%

Question: And the growth at 50 µM (HCT-116 [7])?
Answer: 92%

Question: What about the growth at 50 µM (SN12C) of the same compound?
Answer: 81%

Question: And the growth at 5 µM (Malme-3M [8])?
Answer: 98%

Question: And the GI50 (HCT-116 [9]; read-out: GI50)?
Answer: 11.2 µM

Question: What about the CC50 (HCT-116 [9]; [28]) of the same compound?
Answer: > 50 µM

Question: And the TGI (HCT-116 [9]; read-out: TGI)?
Answer: > 50 µM

Question: And the GI50 (HCT-116 [9]; read-out: pGI50 (converted))?
Answer: 11.2 µM

Question: And the CC50 (HCT-116 [9]; [29])?
Answer: > 50.1 µM

Question: What about the TGI (HCT-116 [9]; read-out: pTGI) of the same compound?
Answer: > 50.1 µM

Question: What about the growth at 50 µM (CAKI-1 [10]) of the same compound?
Answer: 88%

Question: What about the growth at 5000 µM (MOLT-4 [11]) of the same compound?
Answer: 4%

Question: And the GI50 (SNB-75 [12]; read-out: GI50)?
Answer: 9.5 µM

Question: And the CC50 (SNB-75 [12]; [28])?
Answer: > 50 µM

Question: What about the TGI (SNB-75 [12]; read-out: TGI) of the same compound?
Answer: > 50 µM

Question: What about the GI50 (SNB-75 [12]; read-out: pGI50 (converted)) of the same compound?
Answer: 9.55 µM

Question: What about the CC50 (SNB-75 [12]; [29]) of the same compound?
Answer: > 50.1 µM

Question: And the TGI (SNB-75 [12]; read-out: pTGI)?
Answer: > 50.1 µM

Question: And the growth at 500 µM (DU-145)?
Answer: 80%

Question: And the growth at 50 µM (UO-31)?
Answer: 82%

Question: And the growth at 5 µM (786-0)?
Answer: 98%

Question: And the growth at 5 µM (RXF 393 [13])?
Answer: 84%

Question: What about the growth at 0.5 µM (HT-29 [14]) of the same compound?
Answer: 104%

Question: What about the GI50 (U-251 [15]; read-out: GI50) of the same compound?
Answer: 8.86 µM

Question: And the CC50 (U-251 [15]; [28])?
Answer: > 50 µM

Question: What about the TGI (U-251 [15]; read-out: TGI) of the same compound?
Answer: > 50 µM

Question: And the GI50 (U-251 [15]; read-out: pGI50 (converted))?
Answer: 8.71 µM

Question: And the CC50 (U-251 [15]; [29])?
Answer: > 50.1 µM

Question: What about the TGI (U-251 [15]; read-out: pTGI) of the same compound?
Answer: > 50.1 µM

Question: What about the growth at 50 µM (OVCAR-8) of the same compound?
Answer: 78%

Question: And the growth at 5 µM (COLO 205 [16])?
Answer: 94%

Question: What about the growth at 5000 µM (NCI-H460) of the same compound?
Answer: 1%

Question: What about the growth at 500 µM (MOLT-4 [17]) of the same compound?
Answer: 39%

Question: What about the growth at 5 µM (EKVX) of the same compound?
Answer: 84%

Question: And the growth at 500 µM (SF-295)?
Answer: 92%

Question: What about the growth at 500 µM (SW-620) of the same compound?
Answer: 64%

Question: And the growth at 0.5 µM (A498)?
Answer: 94%

Question: And the GI50 (K562; read-out: GI50)?
Answer: 1.56 µM

Question: And the CC50 (K562; [28])?
Answer: > 50 µM

Question: What about the TGI (K562; read-out: TGI) of the same compound?
Answer: 19.9 µM

Question: And the GI50 (K562; read-out: pGI50 (converted))?
Answer: 1.55 µM

Question: And the CC50 (K562; [29])?
Answer: > 50.1 µM

Question: What about the TGI (K562; read-out: pTGI (converted)) of the same compound?
Answer: 20 µM

Question: What about the growth at 50 µM (ACHN [18]) of the same compound?
Answer: 89%

Question: What about the GI50 (HOP-92 [19]; read-out: GI50) of the same compound?
Answer: 0.79 µM

Question: What about the CC50 (HOP-92 [19]; [28]) of the same compound?
Answer: > 50 µM

Question: What about the TGI (HOP-92 [19]; read-out: TGI) of the same compound?
Answer: 16.8 µM

Question: And the GI50 (HOP-92 [19]; read-out: pGI50 (converted))?
Answer: 0.794 µM

Question: And the CC50 (HOP-92 [19]; [29])?
Answer: > 50.1 µM

Question: What about the TGI (HOP-92 [19]; read-out: pTGI (converted)) of the same compound?
Answer: 17 µM

Question: And the growth at 5000 µM (UACC-257)?
Answer: 18%

Question: And the growth at 50 µM (TK-10)?
Answer: 94%

Question: And the growth at 50 µM (U-251 [20])?
Answer: 98%

Question: What about the growth at 0.5 µM (SNB-19) of the same compound?
Answer: 93%

Question: What about the growth at 5000 µM (MCF7 [21]) of the same compound?
Answer: 5%

Question: What about the growth at 500 µM (CAKI-1 [22]) of the same compound?
Answer: 68%

Question: What about the growth at 0.5 µM (RXF 393 [23]) of the same compound?
Answer: 88%

Question: And the growth at 5 µM (HOP-92 [24])?
Answer: 60%

Question: What about the GI50 (COLO 205 [25]; read-out: GI50) of the same compound?
Answer: 18.8 µM

Question: And the CC50 (COLO 205 [25]; [28])?
Answer: > 50 µM

Question: What about the TGI (COLO 205 [25]; read-out: TGI) of the same compound?
Answer: > 50 µM

Question: What about the GI50 (COLO 205 [25]; read-out: pGI50 (converted)) of the same compound?
Answer: 18.6 µM

Question: And the CC50 (COLO 205 [25]; [29])?
Answer: > 50.1 µM

Question: And the TGI (COLO 205 [25]; read-out: pTGI)?
Answer: > 50.1 µM

Question: And the GI50 (HOP-62; read-out: GI50)?
Answer: 29.1 µM

Question: And the CC50 (HOP-62; [28])?
Answer: > 50 µM

Question: What about the TGI (HOP-62; read-out: TGI) of the same compound?
Answer: > 50 µM

Question: What about the GI50 (HOP-62; read-out: pGI50 (converted)) of the same compound?
Answer: 28.8 µM

Question: And the CC50 (HOP-62; [29])?
Answer: > 50.1 µM

Question: And the TGI (HOP-62; read-out: pTGI)?
Answer: > 50.1 µM

Question: And the growth at 5 µM (MCF7 [26])?
Answer: 108%

Question: What about the growth at 500 µM (HT-29 [27]) of the same compound?
Answer: 99%

Source: ChEMBL document CHEMBL1154899, “Synthesis and biological evaluation of caffeic acid 3,4-dihydroxyphenethyl ester” (J Nat Prod, 2010)
